# Experimental data published in patent US9125388B2, “Biological control” (Isis Innovation Limited, priority 1999, dated 2015).
# How the values were obtained:
# Assay type in all cases: in vivo, Drosophila melanogaster
# [1] = test system: Hsp26 tTa, tRe Msl-1^Mpu on the 2nd chromosome; test: Recombinant chromosome experiments: parents raised on supplement, progeny on normal food, adults by sex (25, 18 or 29° C.); conditions: 25° C.
# Experimental: (§1) 40-45 young females and 20-25 young males raised at 25° C. upon food with the indicated tetracycline supplement were allowed to mate, then transferred to normal (tetracycline-free) food after 3-4 days. These flies were transferred to fresh vials of normal food every day for 12 days, then removed on the 13th day. All the vials were incubated at 25° C. while the progeny developed. The numbers of male and female progeny emerging as adults in each vial were recorded.
# (§2) A standard range of additive concentrations were used in the following experiments (0.05-20 μg/ml). […] (=“not done”)
# (§3) All the preceding experiments were performed at 25° C., the standard temperature for Drosophila culture. However, the insects in the wild would clearly be exposed to varying temperatures, so we investigated the extent to which the efficiency of the system is affected by temperature. As with the recombinant chromosome experiments, 40-45 young virgin females and 20-25 young males raised at 25° C. upon food with the indicated tetracycline supplement were allowed to mate, then transferred to normal (tetracycline-free) food after 3-4 days. These flies were transferred to fresh vials of normal food every day. The numbers of male and female progeny emerging as adults in each vial were recorded. These experiments were performed at either 18° C. or 29° C.
# [2] = test system: Hsp26 tTa, tRe Msl-2^Nopu on the 2nd chromosome; test: as above; conditions: 25° C.
# Experimental: as §1, §2, §3
# [3] = test system: Sxl^pe-tTA, tRE-Msl-2^Nopu on the X chromosome; test: as above; conditions: 25° C.
# Experimental: as §1, §2, §3
# [4] = test system: Sxl^pe-tTA, tRE-Msl-2^Nopu on the third chromosome; test: as above; conditions: 25° C.
# Experimental: as §1, §2, §3
# [5] = test system: Sxl^pe-tTA, tRE-Ras64B^V12 on the X chromosome; test: as above; conditions: for Female progeny emerging as adults / Male progeny emerging as adults: 25° C.
# Experimental: as §1, §2, §3
# [6] = test system: Sxl^pe-tTA, tRE-Ras64B^V12 on the third chromosome; test: as above; conditions: 25° C.
# Experimental: as §1, §2, §3
# [7] = test system: Sxlp^e tTa, tRe Msl-1^Mpu on the X chromosome; test: as above; conditions: 25° C.
# Experimental: as §1, §2, §3
# [8] = test system: Yp3 tTa, tRe Msl-2^Nopu on the 2nd chromosome; test: as above; conditions: 25° C.
# Experimental: as §1, §2, §3
# [9] = test system: Yp3 tTa, tRe Msl-1^Mpu on the 2nd chromosome; test: as above; conditions: 25° C.
# Experimental: as §1
# Since there is no meiotic recombination in Drosophila melanogaster males, any of these recombinant chromosomes could be used in a genetic sexing or insect control program, if required.
# as §2, §3
# [10] = test system: Yp3 tTa, tRe Ras64B^V12 on the 2nd chromosome; test: Recombinant chromosome experiments / maternal transmission of Tc (Table 1): parents raised on supplement, progeny on normal food, adults by sex; conditions: 25° C.
# Experimental: as §1, §2, §3
# We used a strain of Drosophila in which females, but not males, require Tc for viability.
# A strain homozygous for second chromosome insertions of both Yp3-tTA and tRe-Ras64B^V12 was tested for the effect of parental dietary Tc. 40-45 young females and 20-25 young males raised at 25° C. upon food with the indicated tetracycline supplement were allowed to mate, then transferred to normal (tetracycline-free) food after 3-4 days. These flies were transferred to fresh vials of normal food every day for 12 days, and then removed on the 13th day. All the vials were incubated at 25° C. while the progeny developed. The total numbers of male and female progeny emerging as adults were recorded.
# [11] = test system: Recombinant chromosome stocks; test: Maintenance of stocks on non-antibiotic tetracycline analogues; conditions: for concentration on which recombinant chromosome stocks can readily be maintained / repressing tTA responsive gene expression: 25° C.
# Experimental: Recombinant chromosome stocks can readily be maintained at 25° C. on epioxytetracycline concentrations of 1 μg/ml or anhydrotetracycline concentrations of 0.1 μg/ml, showing that these non-antibiotic tetracycline analogues are effective in repressing tTA responsive gene expression.
# as §2
# [12] = parents raised on anhydrotetracycline 0.05 μg/ml
# [13] = parents raised on anhydrotetracycline 0.1 μg/ml
# [14] = parents raised on anhydrotetracycline 1 μg/ml
# [15] = parents raised on anhydrotetracycline 5 μg/ml
# [16] = parents raised on anhydrotetracycline 20 μg/ml
# [17] = parents raised on epioxytetracycline 1 μg/ml
# [18] = parents raised on epioxytetracycline 5 μg/ml
# [19] = parents raised on epioxytetracycline 20 μg/ml
# [20] = Epioxytetracycline Conc. 1 μg/ml
# [21] = Epioxytetracycline Conc. 5 μg/ml
# [22] = Epioxytetracycline Conc. 20 μg/ml
smiles,measurement,setting,value
Cc1c2c(c(O)c3c(O)cccc13)C(=O)[C@]1(O)C(=O)C(C(N)=O)=C(O)[C@@H](N(C)C)[C@@H]1C2 [anhydrotetracycline],Female progeny emerging as adults,[1]; [12],0
same,Male progeny emerging as adults,[1]; [12],1492
same,Female progeny emerging as adults,[1]; [13],0
same,Male progeny emerging as adults,[1]; [13],1426
same,Female progeny emerging as adults,[1]; [14],0
same,Male progeny emerging as adults,[1]; [14],1418
same,Female progeny emerging as adults,[1]; [15],0
same,Male progeny emerging as adults,[1]; [15],1457
same,Female progeny emerging as adults,[1]; [16],8
same,Male progeny emerging as adults,[1]; [16],1499
same,Female progeny emerging as adults,[2]; [12],0
same,Male progeny emerging as adults,[2]; [12],707
same,Female progeny emerging as adults,[2]; [13],0
same,Male progeny emerging as adults,[2]; [13],1457
same,Female progeny emerging as adults,[2]; [14],0
same,Male progeny emerging as adults,[2]; [14],1437
same,Female progeny emerging as adults,[2]; [15],0
same,Male progeny emerging as adults,[2]; [15],773
same,Female progeny emerging as adults,[2]; [16],5
same,Male progeny emerging as adults,[2]; [16],1447
same,Female progeny emerging as adults,[3]; [12],0
same,Male progeny emerging as adults,[3]; [12],1114
same,Female progeny emerging as adults,[3]; [13],0
same,Male progeny emerging as adults,[3]; [13],1120
same,Female progeny emerging as adults,[3]; [14],0
same,Male progeny emerging as adults,[3]; [14],1130
same,Female progeny emerging as adults,[3]; [15],0
same,Male progeny emerging as adults,[3]; [15],1148
same,Female progeny emerging as adults,[3]; [16],0
same,Male progeny emerging as adults,[3]; [16],1128
same,Female progeny emerging as adults,[4]; [12],0
same,Male progeny emerging as adults,[4]; [12],1331
same,Female progeny emerging as adults,[4]; [13],0
same,Male progeny emerging as adults,[4]; [13],1431
same,Female progeny emerging as adults,[4]; [14],0
same,Male progeny emerging as adults,[4]; [14],1309
same,Female progeny emerging as adults,[4]; [15],0
same,Male progeny emerging as adults,[4]; [15],1359
same,Female progeny emerging as adults,[4]; [16],1
same,Male progeny emerging as adults,[4]; [16],1362
same,Female progeny emerging as adults,[5]; [12],0
same,Male progeny emerging as adults,[5]; [12],1452
same,Female progeny emerging as adults,[5]; [13],0
same,Male progeny emerging as adults,[5]; [13],1528
same,Female progeny emerging as adults,[5]; [14],0
same,Male progeny emerging as adults,[5]; [14],1614
same,Female progeny emerging as adults,[5]; [15],0
same,Male progeny emerging as adults,[5]; [15],1448
same,Female progeny emerging as adults,[5]; [16],5
same,Male progeny emerging as adults,[5]; [16],1592
same,Female progeny emerging as adults,[6]; [12],0
same,Male progeny emerging as adults,[6]; [12],1381
same,Female progeny emerging as adults,[6]; [13],0
same,Male progeny emerging as adults,[6]; [13],1304
same,Female progeny emerging as adults,[6]; [14],0
same,Male progeny emerging as adults,[6]; [14],1121
same,Female progeny emerging as adults,[6]; [15],0
same,Male progeny emerging as adults,[6]; [15],1269
same,Female progeny emerging as adults,[6]; [16],1
same,Male progeny emerging as adults,[6]; [16],1247
same,Female progeny emerging as adults,[7]; [12],0
same,Male progeny emerging as adults,[7]; [12],1582
same,Female progeny emerging as adults,[7]; [13],0
same,Male progeny emerging as adults,[7]; [13],1499
same,Female progeny emerging as adults,[7]; [14],0
same,Male progeny emerging as adults,[7]; [14],1474
same,Female progeny emerging as adults,[7]; [15],0
same,Male progeny emerging as adults,[7]; [15],1619
same,Female progeny emerging as adults,[7]; [16],5
same,Male progeny emerging as adults,[7]; [16],1533
same,Female progeny emerging as adults,[8]; [12],0
same,Male progeny emerging as adults,[8]; [12],1316
same,Female progeny emerging as adults,[8]; [13],0
same,Male progeny emerging as adults,[8]; [13],1358
same,Female progeny emerging as adults,[8]; [14],0
same,Male progeny emerging as adults,[8]; [14],1354
same,Female progeny emerging as adults,[8]; [15],0
same,Male progeny emerging as adults,[8]; [15],1344
same,Female progeny emerging as adults,[8]; [16],1
same,Male progeny emerging as adults,[8]; [16],1312
same,Female progeny emerging as adults,[9]; [12],0
same,Male progeny emerging as adults,[9]; [12],1339
same,Female progeny emerging as adults,[9]; [13],0
same,Male progeny emerging as adults,[9]; [13],1263
same,Female progeny emerging as adults,[9]; [14],0
same,Male progeny emerging as adults,[9]; [14],1265
same,Female progeny emerging as adults,[9]; [15],0
same,Male progeny emerging as adults,[9]; [15],1284
same,Female progeny emerging as adults,[9]; [16],0
same,Male progeny emerging as adults,[9]; [16],1297
same,Female progeny emerging as adults,[10]; [12],0
same,Male progeny emerging as adults,[10]; [12],1449
same,Female progeny emerging as adults,[10]; [13],0
same,Male progeny emerging as adults,[10]; [13],1411
same,Female progeny emerging as adults,[10]; [14],0
same,Male progeny emerging as adults,[10]; [14],1397
same,Female progeny emerging as adults,[10]; [15],0
same,Male progeny emerging as adults,[10]; [15],1430
same,Female progeny emerging as adults,[10]; [16],2
same,Male progeny emerging as adults,[10]; [16],1428
same,concentration on which recombinant chromosome stocks can readily be maintained,[11],0.1 µg/mL
same,repressing tTA responsive gene expression,[11],effective
CN(C)[C@H]1C(O)=C(C(N)=O)C(=O)[C@@]2(O)C(O)=C3C(=O)c4c(O)cccc4[C@@](C)(O)[C@H]3[C@H](O)[C@@H]12 [epioxytetracycline],Female progeny emerging as adults,[1]; [17],0
same,Male progeny emerging as adults,[1]; [17],1243
same,Female progeny emerging as adults,[1]; [18],0
same,Male progeny emerging as adults,[1]; [18],1409
same,Female progeny emerging as adults,[1]; [19],0
same,Male progeny emerging as adults,[1]; [19],1373
same,Female progeny emerging as adults,[2]; [17],0
same,Male progeny emerging as adults,[2]; [17],1362
same,Female progeny emerging as adults,[2]; [18],0
same,Male progeny emerging as adults,[2]; [18],1181
same,Female progeny emerging as adults,[2]; [19],0
same,Male progeny emerging as adults,[2]; [19],1403
same,Female progeny emerging as adults,[3]; [17],0
same,Male progeny emerging as adults,[3]; [17],1076
same,Female progeny emerging as adults,[3]; [18],0
same,Male progeny emerging as adults,[3]; [18],1119
same,Female progeny emerging as adults,[3]; [19],0
same,Male progeny emerging as adults,[3]; [19],1159
same,Female progeny emerging as adults,[4]; [17],0
same,Male progeny emerging as adults,[4]; [17],1250
same,Female progeny emerging as adults,[4]; [18],0
same,Male progeny emerging as adults,[4]; [18],1300
same,Female progeny emerging as adults,[4]; [19],0
same,Male progeny emerging as adults,[4]; [19],1364
same,Female progeny,[5]; [20],0
same,Male progeny,[5]; [20],1306
same,Female progeny,[5]; [21],0
same,Male progeny,[5]; [21],1581
same,Female progeny,[5]; [22],0
same,Male progeny,[5]; [22],1495
same,Female progeny emerging as adults,[6]; [17],0
same,Male progeny emerging as adults,[6]; [17],1165
same,Female progeny emerging as adults,[6]; [18],0
same,Male progeny emerging as adults,[6]; [18],1279
same,Female progeny emerging as adults,[6]; [19],0
same,Male progeny emerging as adults,[6]; [19],1257
same,Female progeny emerging as adults,[7]; [17],0
same,Male progeny emerging as adults,[7]; [17],1483
same,Female progeny emerging as adults,[7]; [18],0
same,Male progeny emerging as adults,[7]; [18],1585
same,Female progeny emerging as adults,[7]; [19],0
same,Male progeny emerging as adults,[7]; [19],1565
same,Female progeny emerging as adults,[9]; [17],0
same,Male progeny emerging as adults,[9]; [17],1350
same,Female progeny emerging as adults,[9]; [18],0
same,Male progeny emerging as adults,[9]; [18],1308
same,Female progeny emerging as adults,[9]; [19],0
same,Male progeny emerging as adults,[9]; [19],1343
same,Female progeny emerging as adults,[10]; [17],0
same,Male progeny emerging as adults,[10]; [17],1431
same,Female progeny emerging as adults,[10]; [18],0
same,Male progeny emerging as adults,[10]; [18],1424
same,Female progeny emerging as adults,[10]; [19],0
same,Male progeny emerging as adults,[10]; [19],1387
same,concentration on which recombinant chromosome stocks can readily be maintained,[11],1 µg/mL
same,repressing tTA responsive gene expression,[11],effective
same,"concentration required to repress gene expression, compared with tetracycline",[11]; in vivo,slightly higher concentrations are required
same,stock maintenance at the two lowest concentrations,[11]; standard range of additive concentrations 0.05-20 μg/ml,unable to maintain stock
